The experiment has as its system LmCPb antigen. The experiment is classed as in vivo, CBA mice. The conditions noted are these: 2 injections LmCPb with adjuvant.
The mark [1] stands for this setting: in vitro: Amastigotes 17 × 10^−6/ml.

Values joined by “and” are separate entries in the source; they are usually repeats but may differ in a detail not shown here. Identical values can stand only once. Like-named read-outs stand apart in the source and are kept apart here. Bounds are passed on as bounds.

Regarding `CCCCCCCCCCCC(=O)O[C@H](CCCCCCCCCCC)CC(=O)NC(CCOP(=O)(O)O)C(=O)NCCCC(COP(=O)(O)O)NC(=O)C[C@H](O)CCCCCCCCCCC` (stereo partly drawn) [OM-294-DP, 3-[(R)-3-dodecanoyloxytetradecanoylamino]-4-oxo-5-aza-9-[(R)-3-hydroxytetradecanoylamino]decan-1,10-diol 1, 10-bis(dihydrogenphosphate)], the IL-4 concentration is 130 pg/mL and 110 pg/mL under setting [1]; 110 pg/mL and 88 pg/mL (in vitro: LmCPb 15 μg/ml); under 8 pg/mL (in vitro: No stimulant). Besides, the “γ IFN concentration” value is, setting by setting: under setting [1], over 600 pg/mL; (in vitro: Con A 5 μg/ml) 1200 pg/mL and 1900 pg/mL; (in vitro: LmCPb 15 μg/ml) 520 pg/mL and 360 pg/mL; (in vitro: No stimulant) 460 pg/mL and 240 pg/mL.

The record behind these values is US7157092B1, “Acyl pseudodipeptides, preparation method and pharmaceutical compositions containing same” (Om Pharma, priority 1998, dated 2007).
